Test results: ChEMBL document CHEMBL3885861, “Open TG-GATES”

Species: Rattus norvegicus
Assay: Open TG-GATES - Regimen: Daily Repeat
Assay type: toxicity, organism-based, Sprague-Dawley
Design: regimen Daily Repeat, gender Male, age 6 weeks
Conditions: in vivo, po, route gavage; for Bas / Eos / Hb / Ht / Lym / MCH / MCHC / MCV / Mono / Neu / Plat / RBC / Ret / WBC: tissue Blood; for KIDNEY_L / KIDNEY_R / KIDNEY_TOTAL: tissue Kidney; for LIVER: tissue Liver; for A/G / ALP / ALT / AST / BUN / CRE / Ca / Cl / DBIL / GLC / IP / K / LDH / Na / PL / RALB / TBIL / TC / TG / TP / gamma-GTP: tissue Plasma
[1] = 1000 mg/kg, 72 h, dose level Middle, time 3 day
[2] = 1000 mg/kg, […], dose level Middle, time 7 day
[3] = 1000 mg/kg, […], dose level Middle, time 14 day
[4] = 1000 mg/kg, […], dose level Middle, time 28 day
[5] = 2000 mg/kg, 72 h, dose level High, time 3 day
[6] = 2000 mg/kg, […], dose level High, time 7 day
[7] = 2000 mg/kg, […], dose level High, time 14 day
[8] = 2000 mg/kg, […], dose level High, time 28 day

Question: What does the source list for `CC(N)=O` [ACETAMIDE]?
Answer: TERMINAL_BW [1]: 241.7 g; Bas [1]: 0%; Eos [1]: 0.6%; Hb [1]: 12.4 g/dL; Ht [1]: 38.2%; Lym [1]: 75.6%; MCH [1]: 20.1 pg; MCHC [1]: 32.4%; MCV [1]: 62 fL; Mono [1]: 3.8%; Neu [1]: 19%; Plat [1]: 119 x10_4/uL; RBC [1]: 617.4 x10_4/ul; Ret [1]: 7.8%; WBC [1]: 118.5 x10_2/uL; KIDNEY_L [1]: 1 g; KIDNEY_R [1]: 1 g; KIDNEY_TOTAL [1]: 2 g; LIVER [1]: 11.3 g; A/G [1]: 1; ALP [1]: 1645.6 IU/L; ALT [1]: 50.4 IU/L; AST [1]: 84 IU/L; BUN [1]: 17.2 mg/dL; CRE [1]: 0.1 mg/dL; Ca [1]: 10.9 mg/dL; Cl [1]: 104.4 meq/L; DBIL [1]: 0 mg/dL; GLC [1]: 186 mg/dL; IP [1]: 6.7 mg/dL; K [1]: 4.4 meq/L; LDH [1]: 228.8 IU/L; Na [1]: 140.3 meq/L; PL [1]: 161.8 mg/dL; RALB [1]: 2.8 g/dL; TBIL [1]: 0.004 mg/dL; TC [1]: 82.2 mg/dL; TG [1]: 130.3 mg/dL; TP [1]: 5.6 g/dL; gamma-GTP [1]: 0.9 IU/L; TERMINAL_BW [2]: 269.7 g; TERMINAL_BW [3]: 332.5 g; TERMINAL_BW [4]: 409 g; Bas [2]: 0%; Eos [2]: 0.8%; Hb [2]: 13 g/dL; Ht [2]: 39.6%; Lym [2]: 79.2%; MCH [2]: 20 pg; MCHC [2]: 32.8%; MCV [2]: 60.8 fL; Mono [2]: 2.4%; Neu [2]: 17.2%; Plat [2]: 113.6 x10_4/uL; RBC [2]: 650.4 x10_4/ul; Ret [2]: 6.5%; WBC [2]: 128.6 x10_2/uL; Bas [3]: 0%; Eos [3]: 1%; Hb [3]: 13.3 g/dL; Ht [3]: 39.8%; Lym [3]: 81%; MCH [3]: 19.7 pg; MCHC [3]: 33.4%; MCV [3]: 59.2 fL; Mono [3]: 2.8%; Neu [3]: 14.2%; Plat [3]: 118.6 x10_4/uL; RBC [3]: 672.6 x10_4/ul; Ret [3]: 4.8%; WBC [3]: 106.1 x10_2/uL; Bas [4]: 0%; Eos [4]: 1%; Hb [4]: 14.5 g/dL; Ht [4]: 43.1%; Lym [4]: 81.6%; MCH [4]: 18.9 pg; MCHC [4]: 33.7%; MCV [4]: 56.2 fL; Mono [4]: 2.4%; Neu [4]: 14.4%; Plat [4]: 93.5 x10_4/uL; RBC [4]: 767.8 x10_4/ul; Ret [4]: 2.8%; WBC [4]: 140.9 x10_2/uL; KIDNEY_L [2]: 1.2 g; KIDNEY_R [2]: 1.2 g; KIDNEY_TOTAL [2]: 2.4 g; KIDNEY_L [3]: 1.3 g; KIDNEY_R [3]: 1.4 g; KIDNEY_TOTAL [3]: 2.7 g; KIDNEY_L [4]: 1.6 g; KIDNEY_R [4]: 1.6 g; KIDNEY_TOTAL [4]: 3.1 g; LIVER [2]: 11.7 g; LIVER [3]: 14 g; LIVER [4]: 15.5 g; A/G [2]: 1; ALP [2]: 2048.4 IU/L; ALT [2]: 47.4 IU/L; AST [2]: 87.2 IU/L; BUN [2]: 16 mg/dL; CRE [2]: 0.1 mg/dL; Ca [2]: 10.7 mg/dL; Cl [2]: 104.7 meq/L; DBIL [2]: 0 mg/dL; GLC [2]: 186.2 mg/dL; IP [2]: 6.4 mg/dL; K [2]: 4.2 meq/L; LDH [2]: 199 IU/L; Na [2]: 142.7 meq/L; PL [2]: 168 mg/dL; RALB [2]: 2.8 g/dL; TBIL [2]: 0 mg/dL; TC [2]: 83.6 mg/dL; TG [2]: 141.4 mg/dL; TP [2]: 5.7 g/dL; gamma-GTP [2]: 0.7 IU/L; A/G [3]: 0.9; ALP [3]: 1740 IU/L; ALT [3]: 43.8 IU/L; AST [3]: 79.2 IU/L; BUN [3]: 18.4 mg/dL; CRE [3]: 0.2 mg/dL; Ca [3]: 10.5 mg/dL; Cl [3]: 104.6 meq/L; DBIL [3]: 0 mg/dL; GLC [3]: 180.8 mg/dL; IP [3]: 6.4 mg/dL; K [3]: 4.3 meq/L; LDH [3]: 285.4 IU/L; Na [3]: 142.1 meq/L; PL [3]: 153.6 mg/dL; RALB [3]: 2.8 g/dL; TBIL [3]: 0.002 mg/dL; TC [3]: 83 mg/dL; TG [3]: 135.3 mg/dL; TP [3]: 5.7 g/dL; gamma-GTP [3]: 0.7 IU/L; A/G [4]: 0.9; ALP [4]: 1250.4 IU/L; ALT [4]: 48.6 IU/L; AST [4]: 81 IU/L; BUN [4]: 16.8 mg/dL; CRE [4]: 0.2 mg/dL; Ca [4]: 10.3 mg/dL; Cl [4]: 103.7 meq/L; DBIL [4]: 0.006 mg/dL; GLC [4]: 197.2 mg/dL; IP [4]: 5.2 mg/dL; K [4]: 4 meq/L; LDH [4]: 207 IU/L; Na [4]: 142 meq/L; PL [4]: 148.2 mg/dL; RALB [4]: 2.8 g/dL; TBIL [4]: 0.006 mg/dL; TC [4]: 75.2 mg/dL; TG [4]: 122 mg/dL; TP [4]: 6.1 g/dL; gamma-GTP [4]: 0.9 IU/L; TERMINAL_BW [5]: 234.1 g; Bas [5]: 0%; Eos [5]: 0.4%; Hb [5]: 13 g/dL; Ht [5]: 40%; Lym [5]: 78%; MCH [5]: 20.1 pg; MCHC [5]: 32.6%; MCV [5]: 61.7 fL; Mono [5]: 5.2%; Neu [5]: 14.4%; Plat [5]: 119.8 x10_4/uL; RBC [5]: 647.8 x10_4/ul; Ret [5]: 7.6%; WBC [5]: 106.6 x10_2/uL; KIDNEY_L [5]: 1.1 g; KIDNEY_R [5]: 1.1 g; KIDNEY_TOTAL [5]: 2.2 g; LIVER [5]: 10.9 g; A/G [5]: 1; ALP [5]: 1650 IU/L; ALT [5]: 60.6 IU/L; AST [5]: 95.2 IU/L; BUN [5]: 18.4 mg/dL; CRE [5]: 0.1 mg/dL; Ca [5]: 10.9 mg/dL; Cl [5]: 103.7 meq/L; DBIL [5]: 0.006 mg/dL; GLC [5]: 187.4 mg/dL; IP [5]: 7.5 mg/dL; K [5]: 4.2 meq/L; LDH [5]: 200.2 IU/L; Na [5]: 140.6 meq/L; PL [5]: 160.4 mg/dL; RALB [5]: 2.8 g/dL; TBIL [5]: 0.014 mg/dL; TC [5]: 79.2 mg/dL; TG [5]: 94.6 mg/dL; TP [5]: 5.5 g/dL; gamma-GTP [5]: 1 IU/L; TERMINAL_BW [6]: 255.2 g; TERMINAL_BW [7]: 310 g; TERMINAL_BW [8]: 403 g; Bas [6]: 0%; Eos [6]: 1%; Hb [6]: 13.7 g/dL; Ht [6]: 41.1%; Lym [6]: 78.2%; MCH [6]: 19.5 pg; MCHC [6]: 33.4%; MCV [6]: 58.4 fL; Mono [6]: 4%; Neu [6]: 15.2%; Plat [6]: 89.2 x10_4/uL; RBC [6]: 704.6 x10_4/ul; Ret [6]: 4.4%; WBC [6]: 108.9 x10_2/uL; Bas [7]: 0%; Eos [7]: 0.4%; Hb [7]: 14 g/dL; Ht [7]: 41.6%; Lym [7]: 84.8%; MCH [7]: 19.6 pg; MCHC [7]: 33.6%; MCV [7]: 58.2 fL; Mono [7]: 2.4%; Neu [7]: 10.6%; Plat [7]: 101.3 x10_4/uL; RBC [7]: 713.8 x10_4/ul; Ret [7]: 4.1%; WBC [7]: 156.4 x10_2/uL; Bas [8]: 0%; Eos [8]: 0.8%; Hb [8]: 14.8 g/dL; Ht [8]: 44%; Lym [8]: 78.8%; MCH [8]: 19.4 pg; MCHC [8]: 33.8%; MCV [8]: 57.6 fL; Mono [8]: 3%; Neu [8]: 15.6%; Plat [8]: 88.6 x10_4/uL; RBC [8]: 763.8 x10_4/ul; Ret [8]: 2.6%; WBC [8]: 121.1 x10_2/uL; KIDNEY_L [6]: 1.1 g; KIDNEY_R [6]: 1.1 g; KIDNEY_TOTAL [6]: 2.3 g; KIDNEY_L [7]: 1.3 g; KIDNEY_R [7]: 1.3 g; KIDNEY_TOTAL [7]: 2.6 g; KIDNEY_L [8]: 1.5 g; KIDNEY_R [8]: 1.6 g; KIDNEY_TOTAL [8]: 3.1 g; LIVER [6]: 10.6 g; LIVER [7]: 11.7 g; LIVER [8]: 14.4 g; A/G [6]: 1; ALP [6]: 2391.2 IU/L; ALT [6]: 74.6 IU/L; AST [6]: 114.4 IU/L; BUN [6]: 18.5 mg/dL; CRE [6]: 0.2 mg/dL; Ca [6]: 10.5 mg/dL; Cl [6]: 103.1 meq/L; DBIL [6]: 0.02 mg/dL; GLC [6]: 194.8 mg/dL; IP [6]: 5.9 mg/dL; K [6]: 4.2 meq/L; LDH [6]: 251.2 IU/L; Na [6]: 141.3 meq/L; PL [6]: 170.8 mg/dL; RALB [6]: 2.8 g/dL; TBIL [6]: 0.028 mg/dL; TC [6]: 89.8 mg/dL; TG [6]: 94 mg/dL; TP [6]: 5.6 g/dL; gamma-GTP [6]: 1.1 IU/L; A/G [7]: 0.9; ALP [7]: 1866.6 IU/L; ALT [7]: 90.6 IU/L; AST [7]: 159.8 IU/L; BUN [7]: 17.1 mg/dL; CRE [7]: 0.2 mg/dL; Ca [7]: 10.1 mg/dL; Cl [7]: 103.9 meq/L; DBIL [7]: 0.054 mg/dL; GLC [7]: 187.8 mg/dL; IP [7]: 6 mg/dL; K [7]: 4.2 meq/L; LDH [7]: 232.2 IU/L; Na [7]: 141.6 meq/L; PL [7]: 156.2 mg/dL; RALB [7]: 2.7 g/dL; TBIL [7]: 0.07 mg/dL; TC [7]: 87.2 mg/dL; TG [7]: 77.7 mg/dL; TP [7]: 5.5 g/dL; gamma-GTP [7]: 1.6 IU/L; A/G [8]: 0.9; ALP [8]: 1427.6 IU/L; ALT [8]: 55.6 IU/L; AST [8]: 87.4 IU/L; BUN [8]: 18 mg/dL; CRE [8]: 0.2 mg/dL; Ca [8]: 10.2 mg/dL; Cl [8]: 104.2 meq/L; DBIL [8]: 0.01 mg/dL; GLC [8]: 199 mg/dL; IP [8]: 5.3 mg/dL; K [8]: 4.1 meq/L; LDH [8]: 286.2 IU/L; Na [8]: 141.9 meq/L; PL [8]: 136.2 mg/dL; RALB [8]: 2.8 g/dL; TBIL [8]: 0.01 mg/dL; TC [8]: 65.8 mg/dL; TG [8]: 102.2 mg/dL; TP [8]: 6 g/dL; gamma-GTP [8]: 0.8 IU/L
